Data: the NIST ThermoML archive (doi:10.1016/j.jct.2011.12.008)

How the values were obtained:
[1] = 101.33 kPa, Liquid; for viscosity: Capillary tube (Ostwald / Ubbelohde) method; for mass density: Vibrating tube method
[2] = xn = mol fraction of the nth substance listed; details: 101 kPa, Liquid; for viscosity: Capillary tube (Ostwald / Ubbelohde) method; for mass density: Vibrating tube method

CCCCCCn1cc[n+](C)c1.F[B-](F)(F)F [1-hexyl-3-methylimidazolium tetrafluoroborate]
[1]
Details	mass density [kg/m3]	viscosity [mPa·s]
293.15 K	1149.05	234.68
298.15 K	1145.61	178.92
303.15 K	1142.3	136.15
308.15 K	1138.95	106.65
313.15 K	1135.59	83.13
318.15 K	1132.22	69.13
323.15 K	1128.88	56.74
328.15 K	1125.5	48.36
333.15 K	1122.14	43.01
338.15 K	1118.8	37.15

CCCCCCn1cc[n+](C)c1.F[B-](F)(F)F [1-hexyl-3-methylimidazolium tetrafluoroborate] + NCCCO
[2], x1 = 1
Details	mass density [kg/m3]	viscosity [mPa·s]
293.15 K	1149.05	234.68
298.15 K	1145.61	178.92
303.15 K	1142.3	136.15
308.15 K	1138.95	106.65
313.15 K	1135.59	83.13
318.15 K	1132.22	69.13
323.15 K	1128.88	56.74
328.15 K	1125.5	48.36
333.15 K	1122.14	43.01
338.15 K	1118.8	37.15

CC(C)CO [2-methyl-1-propanol]
[1]
Details	mass density [kg/m3]	viscosity [mPa·s]
293.15 K	801.75	4.085
298.15 K	797.89	3.45
303.15 K	793.99	2.877
308.15 K	790.04	2.385
313.15 K	786.04	2.091
318.15 K	781.98	1.85
323.15 K	777.85	1.576
328.15 K	773.65	1.297
333.15 K	769.36	1.124
338.15 K	764.99	0.9876

CC(C)CO [2-methyl-1-propanol] + CCCCCCn1cc[n+](C)c1.F[B-](F)(F)F
[2], x2 = 0
Details	mass density [kg/m3]	viscosity [mPa·s]
293.15 K	801.75	4.085
298.15 K	797.89	3.45
303.15 K	793.99	2.877
308.15 K	790.04	2.385
313.15 K	786.04	2.091
318.15 K	781.98	1.85
323.15 K	777.85	1.576
328.15 K	773.65	1.297
333.15 K	769.36	1.124
338.15 K	764.99	0.9876

NCCCO [3-amino-1-propanol]
[1]
Details	mass density [kg/m3]	viscosity [mPa·s]
293.15 K	987.55	39.29
298.15 K	983.55	30.43
303.15 K	979.53	23.87
308.15 K	975.51	19.07
313.15 K	971.47	15.27
318.15 K	967.43	12.35
323.15 K	963.37	10.22
328.15 K	959.3	8.535
333.15 K	955.22	7.123
338.15 K	951.14	6.045
